Experiment: Solid-form stability of crystalline anhydrate Form II (conversion to Anhydrate III)
Type: physicochemical
Details: converts to crystalline Anhydrate III when heated to 160° C. for 1 hour or in solutions of ethanol, isoamyl alcohol and isopropyl acetate
Protocol: Anhydrate Form II is prepared from a solution of the crystalline hydrate form at a concentration of >100 mg/mL in acetonitrile. The solution is sonicated for approximately 5 minutes to induce crystallization. Anhydrate H is metastable. It converts to crystalline Anhydrate III when heated to 160° C. for 1 hour or in solutions of ethanol, isoamyl alcohol and isopropyl acetate. The X Ray Powder Diffraction peaks are shown below in Table 4.

physical stability of the crystalline form: metastable
SMILES: CCC[C@H](c1ccc(C(=O)NCCC(=O)O)cc1)[C@H](c1ccc(Cl)cc1)c1c[nH]c2c(F)cc(C)cc12 [Anhydrate H, N-(4-{(1S)-1-[(R)-(4-chlorophenyl)(7-fluoro-5-methyl-1H-indol-3-yl)methyl]butyl}benzoyl)-β-alanine]
